{"source": "patent US12161608B2", "about": "“Methods of preventing and treating health conditions using cannabinoid anions” (NATURAL EXTRACTION SYSTEMS, LLC, priority 2019, dated 2024)", "key": {"[1]": {"system": "dog that suffers from chronic seizures", "test": "Treatment of epilepsy", "format": "in vivo", "conditions": "report of the dog's owners", "protocol": "A dog that suffers from chronic seizures was administered a glycerol tincture containing the cannabidiol anion immediately after the onset of a seizure."}, "[2]": {"system": "individual with back pain associated with driving for prolonged periods of time", "test": "Treatment of acute back pain", "format": "in vivo, human", "conditions": "glycerol tincture, ingested; self-report of one individual", "protocol": "An individual who presented with back pain associated with driving for prolonged periods of time was administered a glycerol tincture containing the cannabidiol anion."}, "[3]": {"system": "individual with cancer pain caused by throat cancer", "test": "Treatment of cancer pain", "format": "in vivo, human", "conditions": "water containing the anion, ingested; self-report of one individual", "protocol": "An individual who presented with cancer pain caused by throat cancer was administered water containing the cannabidiol anion (2-[6-isopropenyl-3-methylcyclohex-2-en-1-yl]-3-hydroxy-5-pentylphenolate)."}, "[4]": {"system": "individual with knee pain associated with inflammation caused by trauma from a fall", "test": "Treatment of knee pain", "format": "in vivo, human", "conditions": "glycerol tincture, ingested; self-report of one individual", "protocol": "An individual who presented with knee pain associated with inflammation caused by trauma from a fall was administered a glycerol tincture containing the cannabidiol anion."}, "[5]": {"system": "individual with hip pain associated with sitting", "test": "Treatment of chronic hip pain", "format": "in vivo, human", "conditions": "glycerol tincture, ingested; self-report of one individual", "protocol": "An individual who presented with hip pain associated with sitting was administered a glycerol tincture containing the cannabidiol anion."}, "[6]": {"system": "individual with chronic pain", "test": "Treatment of chronic pain", "format": "in vivo, human", "conditions": "glycerol tincture; self-report of one individual", "protocol": "An individual who presented with chronic pain was administered a glycerol tincture containing the cannabidiol anion."}, "[7]": {"system": "individual with hip pain and lower back pain associated with spinal fusion surgery", "test": "Treatment of post laminectomy syndrome", "format": "in vivo, human", "conditions": "glycerol tincture, ingested, self-report", "protocol": "An individual with hip pain and lower back pain associated with spinal fusion surgery was administered a glycerol tincture containing the cannabidiol anion."}, "individual with anxiety": {"system": "individual with anxiety", "test": "Treatment of anxiety", "format": "in vivo, human", "protocol": "An individual was administered a beverage containing the cannabidiol anion prior to driving to an airport to catch a flight that was scheduled to leave within thirty minutes of the arrival at the airport.\nAn individual who suffers from chronic anxiety was administered a glycerol tincture containing the cannabigerol anion."}, "[8]": {"system": "individual with social anxiety associated with presenting at business meetings", "test": "Treatment of social anxiety", "format": "in vivo, human", "conditions": "beverage given before presenting at a business meeting; self-report", "protocol": "An individual who presented with social anxiety associated with presenting at business meetings was administered a beverage containing the cannabidiol anion before presenting."}, "[9]": {"system": "individual with cramping and restless legs syndrome", "test": "Treatment of cramping and restless legs syndrome", "format": "in vivo, human", "conditions": "glycerol tincture before sleep; self-report of one individual", "protocol": "An individual who presented with cramping and restless legs syndrome was administered a glycerol tincture containing the cannabidiol anion before sleep."}, "[10]": {"system": "individual with arthritis", "test": "Treatment of arthritis", "format": "in vivo, human", "conditions": "glycerol tincture; self-report of one individual", "protocol": "An individual who was unable to fill […] hydroxychloroquine prescription to treat the arthritis during the COVID-19 pandemic was administered a glycerol tincture containing the cannabidiol anion."}, "[11]": {"system": "individual with chronic back pain associated with standing", "test": "Treatment of chronic back pain", "format": "in vivo, human", "conditions": "glycerol tincture, ingested; self-report of one individual", "protocol": "An individual who presented with chronic back pain associated with standing was administered a glycerol tincture containing the cannabidiol anion."}, "[12]": {"system": "individual with Inflammatory Bowel Disease", "test": "Treatment of Inflammatory Bowel Disease", "format": "in vivo, human", "conditions": "glycerol tincture; self-report of one individual", "protocol": "An individual who presented with Inflammatory Bowel Disease was administered a glycerol tincture containing the cannabigerol anion."}, "[13]": {"system": "individual with Crohn's disease", "test": "Treatment of Crohn's disease", "format": "in vivo, human", "conditions": "glycerol tincture; self-report of one individual", "protocol": "An individual who presented with Crohn's disease was administered a glycerol tincture containing the cannabigerol anion."}, "[14]": {"system": "individual with chronic insomnia", "test": "Treatment of insomnia", "format": "in vivo, human", "conditions": "glycerol tincture before sleep; self-report of one individual", "protocol": "An individual who presented with chronic insomnia was administered a glycerol tincture containing the cannabigerol anion before sleep."}}}
{"compound": "C=C(C)C1CCC(C)=CC1c1c(O)cc(CCCCC)cc1O", "note": "(centres unmarked) [cannabidiol anion, 2-[6-isopropenyl-3-methylcyclohex-2-en-1-yl]-3-hydroxy-5-pentylphenolate]", "values": [{"measurement": "effect on seizures", "setting": "[1]; glycerol tincture immediately after the onset of a seizure", "value": "both instantaneously and consistently arrested multiple seizures in the dog"}, {"measurement": "effect on quality of life", "setting": "[1]; glycerol tincture", "value": "significantly improved the dog's quality of life"}, {"measurement": "reported effect on back pain", "setting": "[2]", "value": "notable alleviation of the back pain within minutes of ingestion"}, {"measurement": "reported effect on throat pain", "setting": "[3]", "value": "notable alleviation of throat pain within minutes of ingestion"}, {"measurement": "reported effect on mobility and knee pain", "setting": "[4]", "value": "improved mobility and alleviation of knee pain within minutes of ingestion"}, {"measurement": "reported effect on hip pain", "setting": "[5]", "value": "notable alleviation of the hip pain within minutes of ingestion"}, {"measurement": "reported effect in chronic pain (standard of living)", "setting": "[6]", "value": "significant improvement in their standard of living"}, {"measurement": "reported effect on hip pain and lower back pain", "setting": "[7]", "value": "notable alleviation of hip pain and lower back pain within minutes of ingestion"}, {"measurement": "reported anxiety during a drive to an airport", "setting": "individual with anxiety; beverage given prior to driving, self-report of one individual", "value": "notable absence of anxiety"}, {"measurement": "reported effect on social anxiety and performance", "setting": "[8]", "value": "reduced anxiety and improved performance during the business meeting"}, {"measurement": "reported effect on sleep quality", "setting": "[9]", "value": "significant improvement in sleep quality"}, {"measurement": "reported effectiveness at treating arthritis compared with hydroxychloroquine", "setting": "[10]", "value": "more effective at treating their arthritis than hydroxychloroquine"}, {"measurement": "reported effect on chronic back pain", "setting": "[11]", "value": "notable alleviation of the back pain within minutes of ingestion"}]}
{"compound": "CCCCCc1cc(O)c(CC=C(C)CCC=C(C)C)c(O)c1", "note": "[cannabigerol anion, 2-[3,7-dimethylocta-2,6-diene-1-yl]-3-hydroxy-5-pentylphenolate]", "values": [{"measurement": "reported effect on symptoms of Inflammatory Bowel Disease", "setting": "[12]", "value": "significant improvement in their symptoms of Inflammatory Bowel Disease"}, {"measurement": "reported effect on chronic anxiety symptoms", "setting": "individual with anxiety; glycerol tincture, individual who suffers from chronic anxiety, self-report", "value": "significant improvement in their anxiety symptoms"}, {"measurement": "reported effect on symptoms of Crohn's disease", "setting": "[13]", "value": "significant improvement in their symptoms of Crohn's disease"}, {"measurement": "reported effect on onset and quality of sleep", "setting": "[14]", "value": "significant improvement in the onset and quality of their sleep"}]}
